# Like-named read-outs stand apart in the source and are kept apart here.
# Legend:
# [1] = target: biotinylated human IL-17A / AF647-labeled human IL-17RA (Homo sapiens, UniProt Q16552); assay: Human IL-17A×IL-17RA TR-FRET assay; type: binding
# Summary of the method: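 Compounds tested in duplicate at each concentration; neutral controls contain all components with DMSO in place of compound.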
# [2] = target: recombinant human IL-17AA (Homo sapiens, UniProt Q16552); assay: IL-6 release from NHDF cells, IL-17AA plus TNF-α stimulation; type: cell-based; settings: 24 hours, IL-6 by ELISA
# Summary of the method: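 IL-17-specific IL-6 release from NHDF cells adhered overnight; compounds pre-incubated 30 min at room temperature with human IL-17AA plus TNF-α, then 24 h on cells at 37° C. Final DMSO 0.1% or plasma 20%; IL-6 by ELISA (450 nm). TNF-α-only IL-6 subtracted before IC50 fit.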
# [3] = TR-FRET, biotinylated human IL-17A 5 nM, AF647-labeled human IL-17RA 30 nM, read-out: IL17AA FRET/ IL17Rawt IC50
# [4] = NHDF cells, IL-17AA 30 pM plus TNF-α 6 pM, read-out: IL17AA + TNF IC50 IL-6
# [5] = TR-FRET, 5 nM IL-17A, 30 nM IL-17RA, read-out: IL17AA FRET/ IL17Rawt IC50
# [6] = NHDF cells, IL-17AA 30 pM + TNF-α 6 pM, read-out: IL17AA + TNF IC50 IL-6
# [7] = IL17AA FRET/ IL17Rawt IC50, TR-FRET, 5 nM IL-17A, 30 nM IL-17RA
# [8] = IL17AA + TNF IC50 IL-6, NHDF cells, IL-17AA 30 pM + TNF-α 6 pM
# [9] = TR-FRET, 5 nM IL-17A, 30 nM IL-17RA, reference examples (pyridines), read-out: IL17AA FRET/ IL17RAwt IC50
# [10] = NHDF cells, IL-17AA 30 pM + TNF-α 6 pM, reference examples (pyridines), read-out: IL 17AA + TNF IC50 IL-6
# Chain of biotinylated human IL-17A / AF647-labeled human IL-17RA (Q16552 24-155): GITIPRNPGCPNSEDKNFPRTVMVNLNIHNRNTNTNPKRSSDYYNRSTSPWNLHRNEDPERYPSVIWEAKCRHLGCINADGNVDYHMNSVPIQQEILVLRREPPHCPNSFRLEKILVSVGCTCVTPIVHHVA
# Chain of recombinant human IL-17AA (Q16552 24-155): as above
"IC50 [1, 5] [nM]","IC50 [2, 6] [nM]",SMILES,also measured
,,"CCc1nocc1C(=O)N[C@H](C(=O)Nc1ccc(-c2c(C(F)(F)F)cc[n+]([O-])c2C)cc1)C1CCCC1 [Example 5, (S)-3-(4-(2-cyclopentyl-2-(3-ethylisoxazole-4-carboxamido)acetamido)phenyl)-2-methyl-4-(trifluoromethyl)pyridine 1-oxide]","IC50 [1, 3]: 28 nM; IC50 [2, 4]: 9 nM; melting point: 149 to 151 °C"
,,"CCc1nocc1C(=O)N[C@H](C(=O)Nc1ccc(-c2c(Cl)cc[n+]([O-])c2C)cc1)[C@H]1CCCC(F)(F)C1 [Example 6, 4-chloro-3-(4-((S)-2-((S)-3,3-difluorocyclohexyl)-2-(3-ethylisoxazole-4-carboxamido)acetamido)phenyl)-2-methylpyridine 1-oxide]","IC50 [1, 3]: 48 nM; IC50 [2, 4]: 5 nM; melting point: 247 to 250 °C"
252,61,"Cc1cc[n+]([O-])c(C)c1-c1ccc(NC(=O)C(NC(=O)c2ccc3n2CCNC3)C2CC3CC3C2)cc1 [Example 201, 3-(4-((S)-2-((1R,3r,5S)-bicyclo[3.1.0]hexan-3-yl)-2-(1,2,3,4-tetrahydropyrrolo[1,2-a]pyrazine-6-carboxamido)acetamido)phenyl)-2,4-dimethylpyridine 1-oxide]",
257,73,"Cc1cc[n+]([O-])c(C)c1-c1ccc(NC(=O)[C@@H](NC(=O)c2ccc3n2CCNC3)C2CCCCCC2)cc1 [Example 202, (S)-3-(4-(2-cycloheptyl-2-(1,2,3,4-tetrahydropyrrolo[1,2-a]pyrazine-6-carboxamido)acetamido)phenyl)-2,4-dimethylpyridine 1-oxide]",
257,39,"Cc1c(-c2ccc(NC(=O)C(NC(=O)c3ccc4n3CCN(C)C4)C3CC4CC4C3)cc2F)c(Cl)cc[n+]1[O-] (centres unmarked) [Example 203, 3-(4-(2-(bicyclo[3.1.0]hexan-3-yl)-2-(2-methyl-1,2,3,4-tetrahydropyrrolo[1,2-a]pyrazine-6-carboxamido)acetamido)-2-fluorophenyl)-4-chloro-2-methylpyridine 1-oxide]",
278,95,"Cc1cc[n+]([O-])c(C)c1-c1ccc(NC(=O)C(NC(=O)c2ccc3n2CCNC3)C2CC3CC3C2)cc1 [Example 204, 3-(4-((S)-2-((1R,3s,5S)-bicyclo[3.1.0]hexan-3-yl)-2-(1,2,3,4-tetrahydropyrrolo[1,2-a]pyrazine-6-carboxamido)acetamido)phenyl)-2,4-dimethylpyridine 1-oxide]",
287,58,"Cc1cc[n+]([O-])c(C)c1-c1ccc(NC(=O)[C@@H](NC(=O)c2ccc3n2CCNC3)C2CCCCC2)cc1 [Example 205, (S)-3-(4-(2-cyclohexyl-2-(1,2,3,4-tetrahydropyrrolo[1,2-a]pyrazine-6-carboxamido)acetamido)phenyl)-2,4-dimethylpyridine 1-oxide]",
296,63,"Cc1c(-c2ccc(NC(=O)[C@@H](NC(=O)c3ccc4n3CCNC4)C3CCCCC3)cc2)c(Cl)cc[n+]1[O-] [Example 206, (S)-4-chloro-3-(4-(2-cyclohexyl-2-(1,2,3,4-tetrahydropyrrolo[1,2-a]pyrazine-6-carboxamido)acetamido)phenyl)-2-methylpyridine 1-oxide]",
303,69,"Cc1cc[n+]([O-])c(C)c1-c1ccc(NC(=O)[C@@H](NC(=O)c2ccc3n2CCNC3)C2CCC(F)(F)CC2)cc1 [Example 207, (S)-3-(4-(2-(4,4-difluorocyclohexyl)-2-(1,2,3,4-tetrahydropyrrolo[1,2-a]pyrazine-6-carboxamido)acetamido)phenyl)-2,4-dimethylpyridine 1-oxide]",
533,2580,"Cc1cc[n+]([O-])c(C)c1-c1ccc(NC(=O)[C@@H](NC(=O)c2ccc3n2CCN(C)C3)C(C)c2ccccc2Cl)cc1 (stereo partly drawn) [Example 213, 3-(4-((2S)-3-(2-chlorophenyl)-2-(2-methyl-1,2,3,4-tetrahydropyrrolo[1,2-a]pyrazine-6-carboxamido)butanamido)phenyl)-2,4-dimethylpyridine 1-oxide]",
755,138,"Cc1cc[n+]([O-])c(C)c1-c1ccc(NC(=O)[C@@H](NC(=O)c2ccnn2C)[C@H]2CCC[C@@H](F)CC2)cc1 [Example 215, 3-(4-((S)-2-((1S,4R)-4-fluorocycloheptyl)-2-(1-methyl-1H-pyrazole-5-carboxamido)acetamido)phenyl)-2,4-dimethylpyridine 1-oxide]",
1100,2960,"Cc1cc[n+]([O-])c(C)c1-c1ccc(NC(=O)[C@H](Cc2ccccc2F)NC(=O)c2ccnn2C)cc1 [Example 217, (S)-3-(4-(3-(2-fluorophenyl)-2-(1-methyl-1H-pyrazole-5-carboxamido)propanamido)phenyl)-2,4-dimethylpyridine 1-oxide]",
67.5,19.5,"Cc1c(-c2ccc(NC(=O)C(NC(=O)c3ccnn3C)C3CC4CC4C3)cc2)c(Cl)cc[n+]1[O-] (centres unmarked) [Example 218, 3-(4-(2-(bicyclo[3.1.0]hexan-3-yl)-2-(1-methyl-1H-pyrazole-5-carboxamido)acetamido)phenyl)-4-chloro-2-methylpyridine 1-oxide]",
,,"Cc1cc[n+]([O-])c(C)c1-c1ccc(NC(=O)C(NC(=O)c2ccnn2C)C2C=C(F)CCC2)cc1 (centres unmarked) [Example 219, 3-(4-(2-(3-fluorocyclohex-2-en-1-yl)-2-(1-methyl-1H-pyrazole-5-carboxamido)acetamido)phenyl)-2,4-dimethylpyridine 1-oxide]","IC50 [1, 7]: 2290 nM; IC50 [2, 8]: 142 nM"
71.9,264,"Cc1cc[n+]([O-])c(C)c1-c1ccc(NC(=O)C(NC(=O)c2conc2C)C(C)c2ccccc2Cl)cc1 (centres unmarked) [Example 221, 3-(4-(3-(2-chlorophenyl)-2-(3-methylisoxazole-4-carboxamido)butanamido)phenyl)-2,4-dimethylpyridine 1-oxide]",
2190,108,"Cc1c(-c2ccc(NC(=O)[C@@H](NC(=O)c3ccnn3C)C3CCCCC3)cc2)c(C(C)C)cc[n+]1[O-] [Example 224, (S)-3-(4-(2-cyclohexyl-2-(1-methyl-1H-pyrazole-5-carboxamido)acetamido)phenyl)-4-isopropyl-2-methylpyridine 1-oxide]",
,,"Cc1c(-c2ccc(NC(=O)C(NC(=O)c3ccnn3C)[C@H]3C[C@@H]4C[C@@H]4C3)cc2F)c(Cl)cc[n+]1[O-] (stereo partly drawn) [Example 225, 3-(4-(2-((1R,3s,5S)-bicyclo[3.1.0]hexan-3-yl)-2-(1-methyl-1H-pyrazole-5-carboxamido)acetamido)-2-fluorophenyl)-4-chloro-2-methylpyridine 1-oxide]","IC50 [1, 7]: 29 nM; IC50 [2, 8]: 12 nM"
,,"Cc1ccnc(C)c1-c1ccc(NC(=O)[C@@H](NC(=O)c2ccnn2C)[C@H]2CCCc3ccccc32)cc1 [compound 136, N—((S)-2-((4-(2,4-dimethylpyridin-3-yl)phenyl)amino)-2-oxo-1-((S)-1,2,3,4-tetrahydronaphthalen-1-yl)ethyl)-1-methyl-1H-pyrazole-5-carboxamide, reference compound]","IC50 [1, 9]: 117 nM; IC50 [2, 10]: 50 nM"
,,"Cc1ccnc(C)c1-c1ccc(NC(=O)[C@@H](NC(=O)c2ccnn2C)[C@H]2CC[C@H](C)CC2)cc1 [compound 138, N-((S)-2-((4-(2,4-dimethylpyridin-3-yl)phenyl)amino)-1-((1r,4S)-4-methylcyclohexyl)-2-oxoethyl)-1-methyl-1H-pyrazole-5-carboxamide, reference compound]","IC50 [1, 9]: 552 nM; IC50 [2, 10]: 55 nM"
,,"CCc1nocc1C(=O)N[C@H](C(=O)Nc1ccc(-c2c(C(F)(F)F)ccnc2C)cc1)C1CCCC1 [compound 139, (S)-N-(1-cyclopentyl-2-((4-(2-methyl-4-(trifluoromethyl)pyridin-3-yl)phenyl)amino)-2-oxoethyl)-3-ethylisoxazole-4-carboxamide, reference compound]","IC50 [1, 9]: 899 nM; IC50 [2, 10]: 152 nM"
,,"Cc1ccnc(C)c1-c1ccc(NC(=O)[C@@H](NC(=O)c2ccnn2C)[C@@H]2CC=C(F)CC2)cc1 [compound 144, N-((S)-2-((4-(2,4-dimethylpyridin-3-yl)phenyl)amino)-1-((S)-4-fluorocyclohex-3-en-1-yl)-2-oxoethyl)-1-methyl-1H-pyrazole-5-carboxamide, reference compound]","IC50 [1, 9]: 4180 nM; IC50 [2, 10]: 715 nM"
